“Also recorded” adds a separate entry of the source.
Legend:
[1] = test system: MCF-7 (Human Breast Cancer) cells; experiment: Cytotoxicity assay by MTT, MCF-7 cells; assay type: cell-based
Method: (§1) MCF-7 (Human Breast Cancer) and HFF-1 (Human Foreskin Fibroblasts) cell lines were sub-cultured in DMEM (Dullbecco's Modified Eagle Medium) supplemented with 1% of L-Glutamine, 10% of Fetal Bovine Serum as FBS (Gibco), 1% of Non-Essential Amino Acid (Gibco), and 1% of penicillin and streptomycin. The cells were cultured in a humidified CO2 incubator at 37° C. (Thermoscientific, Waltham, MA). The cells were seeded for in a 96 well plate (Thermo Fisher, Waltham, USA) with 10,000 cells per well. […] The cells were tested after 24, 48 and 72 hours using (Thiazolyl Blue Tetrazolium Bromide, MOLEQULE-ON) MTT assay.
(§2) Cultured media along with NPs were removed from 96 well plates and the cells were washed with 1×PBS.
(§3) The statistical analysis was done for determining the MTT cytotoxicity assay, using an unpaired two-way ANOVA (GraphPad Prism software), P-value is set at <0.05 (* if P≤0.05, ** if P≤0.01, *** if P≤0.001, **** if P≤0.0001) were considered statistically significant. The results were calculated from different three experiments.
The cytotoxicity study was performed to evaluate the toxicity of CeO2 nanoparticles against breast cancer cell line (MCF-7) and a non-cancerous cell line of human foreskin fibroblast (HFF-1). Different concentrations were applied (see Table 1) for 24, 48 and 72 hours, then, cytotoxicity was measured by MTT assay after each period of treatment. The data were plotted in scattered graphs using excel to calculate the EC50 values from the exponential trendline generated equation. The statistical significance with the p value and standard deviation were analyzed by two-way ANOVA test in GraphPad, Prism software. […] In addition, EC50 values were calculated to estimate the half maximal cytotoxic effect after each time point.

[2] = test system: HFF-1 (Human Foreskin Fibroblasts) cells; experiment: Cytotoxicity assay by MTT, HFF-1 cells; assay type: cell-based
Method: as §1, §2, §3

MCF-7 cells = experiment: Imaging of treated cells by light microscopy, MCF-7; assay type: cell-based, Human; settings: 200 or 400 μg/mL, 48 h, light microscope
Method: (§4) The cells were observed under the light microscope after each time point to evaluate the morphological changes and study the NPs effect on cell proliferation without fixation. The images were taken by light microscope (TS100F Eclipse, Nikon, Tokyo, Japan) that can work with a digital camera and combined with its Nikon microscope program.
(§5) The effect of nanocomposites on cell morphology was imaged by using a light microscope after each time point. MCF-7 cells and HFF-1 cells were treated with either 200 or 400 μg/mL for 48 h to evaluate the average morphological changes. […] In the microscopy images, the magnification was ×100 and the scale bar represents 100 μm.

HFF-1 cells = experiment: Imaging of treated cells by light microscopy, HFF-1; assay type: cell-based, Human; settings: 200 or 400 μg/mL, 48 h, light microscope
Method: as §4, §5

| SMILES | EC50 Value of treated MCF-7 cells, 24 h ([1]; MCF-7, MTT, 24 h treatment) [µg/mL] | EC50 Value of treated MCF-7 cells, 48 h ([1]; MCF-7, MTT, 48 h treatment) [µg/mL] | EC50 Value of treated MCF-7 cells, 72 h ([1]; MCF-7, MTT, 72 h treatment) [µg/mL] | EC50 Value of treated HFF-1 cells, 24 h ([2]; HFF-1, MTT, 24 h treatment) [µg/mL] | EC50 Value of treated HFF-1 cells, 48 h ([2]; HFF-1, MTT, 48 h treatment) [µg/mL] | EC50 Value of treated HFF-1 cells, 72 h ([2]; HFF-1, MTT, 72 h treatment) [µg/mL] | effect on cell morphology and proliferation, MCF-7 (MCF-7 cells) | effect on cell morphology and proliferation, HFF-1 (HFF-1 cells) | cytotoxic efficacy against MCF-7 cells (in words) ([1]; MTT, 24-72 h) | cytotoxic efficacy against HFF-1 cells (in words) ([2]; MTT, 24-72 h) |
| --- | --- | --- | --- | --- | --- | --- | --- | --- | --- | --- |
| N.N.[Cl][Pt][Cl] [cisplatin] | 21.58 | 8.03 | 3.12 | 52.3 | 12.62 | 6.58 | cell death morphological structures | cell death morphological structures | – | – |
| COc1cc(/C=C/C(=O)CC(=O)/C=C/c2ccc(O)c(OC)c2)ccc1O [curcumin] | – | – | – | – | – | – | slightly affected | slightly affected | lowest efficacy with high cell viability percentages; also recorded: rapidly enhanced the cell growth | less efficacy |

From patent US12144823B2, “Porous silicate and/or aluminosilicate matrix/cerium oxide nanoparticle nanocarrier for combination anti-cancer therapeutic and antioxidant delivery” (Imam Abdulrahman Bin Faisal University, priority 2022, dated 2024)
